The test system of assay [1] is Bacteroides fragilis ATCC 23745. The assay can be described thus: MIC, agar dilution (Wilkins-Chalgren agar, 48 h, anaerobic). The class given is cell-based. In general terms: Agar dilution tests growth on a series of plates holding different concentrations.
Assay [2] concerns Mycoplasma gallisepticum S6 Weybridge. The assay can be described thus: MIC, broth dilution (PPLO broth + 10% horse serum + 1% glucose, 48 h). The class given is cell-based. In general terms: In broth dilution the organism is exposed to a series of concentrations in liquid medium.
Assay [3] concerns Strep. faecalis ATCC 7080. The assay can be described thus: MIC, broth dilution (Isosensitest broth, 24 h). The assay is classed as cell-based.
Assay [4] has as its system Haemophilus influenzae type b ATCC 19418. Nature of the assay: MIC, agar dilution (GB base agar + 1% Isovitalex + 0.001% hemin, 24 h). The assay is classed as cell-based.
The subject of assay [5] is Staph. epidermidis ATCC 12228. The assay can be described thus: MIC, broth dilution (Isosensitest broth, 24 h). The class given is cell-based.
The test system of a further assay is S. pyogenes C 203. Nature of the assay: Experimental septicemia in mice, ED50. The note with it: mice infected intraperitoneally with S. pyogenes C 203; treated subcutaneously about 30 min after infection; survival, calculated on the 10th day (Spearman and Karber). The class given is in vivo. The protocol: The antimicrobial activity of the compound of the invention is confirmed also in in vivo experiments conducted essentially as described by R. Pallanza et al., J. Antimicrob. Chemother. 11, 419 (1983). The experimental infection was induced in mice by intraperitoneally administering a suspension of S. pyogenes C 203. Inocula had been adjusted so that the untreated animals died of septicemia within 48 h. Animals were treated subcutaneously with the test compound about 30 min after infection. The ED50 value was calculated on the 10th day by the method of Spearman and Karber (D. J. Finney "Statistical Methods in Biological Assay", Griffin, page 524, 1952) on the basis of the percentage of survival at each dose.

Assay [6] deals with Clostridium perfringens ISS30543. The class given is cell-based. Conditions: anaerobic.
The subject of assay [7] is Clostridium difficile ATCC 9689. The assay can be described thus: MIC, agar dilution (Wilkins-Chalgren agar, 48 h, anaerobic). The class given is cell-based.
Assay [8] relates to Strept. mitis clin. isolate. Nature of the assay: MIC, broth dilution (Todd-Hewitt broth, 24 h). The assay is classed as cell-based.
The test system of assay [9] is Escherichia coli SKF 12140. Nature of the assay: MIC, broth dilution (Isosensitest broth, 24 h). The assay is classed as cell-based.
A further assay deals with Strep. pyogenes C203. Nature of the assay: MIC, broth dilution (Todd-Hewitt broth, 24 h). The class given is cell-based.
For assay [10], the system named is Neisseria gonorrhoeae ISM68/126. Nature of the assay: MIC, broth dilution (GC base broth + 1% Isovitalex, 48 h, CO2-enriched). The assay is classed as cell-based.
A further assay concerns Strep. pneumoniae UC41. Nature of the assay: MIC, broth dilution (Todd-Hewitt broth, 24 h). The assay is classed as cell-based.
A further assay concerns Staph. aureus Tour. Nature of the assay: MIC, broth dilution (Isosensitest broth, 24 h). The class given is cell-based.
For assay [11], the system named is Propionibacterium acnes ATCC 6919. Nature of the assay: MIC, agar dilution (Wilkins-Chalgren agar, 48 h, anaerobic). The assay is classed as cell-based.

Where only a bound is given, the exact number is not on record here.

Usually ED50 stands for the dose that gives a 50% effect, or the effect in half of the subjects. For antibiotic A 40926 mannosyl aglycon, the M.I.C. in assay [1] is 64 µg/mL; in assay [2] it was more than 128 µg/mL; in assay [3], 1 µg/mL; in assay [4], 64 µg/mL; in [5], 0.5 µg/mL; in assay [6] it was 0.13 µg/mL. Also, the M.I.C. in assay [7] was 2 µg/mL; in [8], 1 µg/mL; in [9] it was more than 128 µg/mL; with Strep. pyogenes C203 it was 1 µg/mL; in [10], 32 µg/mL; in the assay with Strep. pneumoniae UC41, 1 µg/mL. Besides, the M.I.C. in the assay with Staph. aureus Tour (Staph. aureus Tour (L165), 10^6 cfu/ml) turned out to be 1 µg/mL; in the assay on Staph. aureus Tour (Staph. aureus Tour, 30% bovine serum), 2 µg/mL; in the assay with Staph. aureus Tour (Staph. aureus Tour, inoculum about 10^4-10^5 cfu/ml) it was 0.25 µg/mL; in assay [11], 1 µg/mL. Moreover, in the assay with S. pyogenes C 203, the ED50 was 3.8 mg/kg.

The values above are taken from patent publication US4782042A, “Antibiotic A 40926 mannosyl aglycon” (Gruppo Lepetit S.p.A., priority 1985, dated 1988).
